Source: BindingDB's records for doi:10.1016/j.bmcl.2011.10.116 (The University of Queensland, 2012)

Molecular target: Beta-lactamase (Pseudomonas aeruginosa, UniProt Q79MP6)
Experiment: Competitive inhibition of Pseudomonas aeruginosa beta-lactamase IMP-1 assessed as formation of 4-nitrothiophenolate at pH 7 using CENTA as chromogenic substrate

Chain of Beta-lactamase (Q79MP6 whole entry): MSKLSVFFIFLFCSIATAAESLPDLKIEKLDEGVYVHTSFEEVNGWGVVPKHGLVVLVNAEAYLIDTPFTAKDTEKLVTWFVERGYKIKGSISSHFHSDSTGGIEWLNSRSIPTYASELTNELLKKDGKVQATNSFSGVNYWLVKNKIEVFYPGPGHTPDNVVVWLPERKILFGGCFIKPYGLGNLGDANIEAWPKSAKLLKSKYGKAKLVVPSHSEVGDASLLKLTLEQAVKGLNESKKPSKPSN

Ki | SMILES
75 µM | O=C(c1ccccc1)c1ccc(-c2nnc(S)[nH]2)cc1
19 µM | NC(S)=NNC(=O)c1ccccc1
16 µM | NC(=S)NNC(=O)c1ccc(C(=O)c2cccc([N+](=O)[O-])c2)cc1
41 µM | Cc1ccc(C(=O)c2ccc(C(=O)NNC(N)=S)cc2)cc1
13 µM | NC(=S)NNC(=O)c1ccc(C(=O)c2ccccc2)cc1
14 µM | NC(=S)NNC(=O)c1ccc(C(=O)c2ccccc2Cl)cc1
18 µM | NC(=S)NNC(=O)c1ccc(Cc2ccccc2)cc1
11 µM | NC(=S)NNC(=O)c1ccc(C(=O)c2ccc([N+](=O)[O-])cc2)cc1
